The record followed here is patent publication EP0437367A2, “Compositions and methods for inhibiting osteoclast cellular adhesion to bone” (MERCK & CO. INC., priority 1990, dated 1991).

What all share (type): cell-based
The subject of assay [1] is chicken osteoclasts. Description: resorption by chicken osteoclasts, release of 3H proline from labelled bone particles. How it is done: Osteoclasts from the long bones of egg laying hens were isolated by the methods of Zambonin Zallone et al. (1989) and Blair et al., J. Cell Biol. 102: 1164-1172 (1986). Medullary bone was harvested with scalpels from split femora and tibiae of laying hens (Dekalb XL) that were on a Ca deficient diet (5070C- 9, Purina Mills Inc., St. Louis) for 3-6 wks. After washing in PBS 4°C, the suspension was pressed through a 110 um nylon mesh and then osmotically shocked in 0.2% NaCl for 3 min 37°C to lyse red blood cells. The cells were collected at 350xg (5 min, 4°C), and osteoclasts were sedimented through 70% serum for 90 min at 4°C in 50 ml tubes (Fisher). The bottom 5 ml was then layered over a 3 step (1.073, 1.099, 1.143 g/cm³) Nycodenz gradient (Accurate, Ct) and spun at 350xg, 20 min, 4°C. […] Cells excluding trypan blue (Gibco) were immediately counted on a hemocytometer (Fisher) and aliquoted at 1-2x 10⁶ total cells (not counting red blood cells)/ well of 48 well plates (Costar), no. […]
Therefore, for 1 day resorption experiments, unlabelled bone particles (50 ug, <20 um fraction) were first added to chicken cells at day 3 followed by labelled bone (100 ug, 20- 53 um) plus test compounds (Merck) at day 5. Alternatively, labelled bone (100 ug) plus compounds were added at day 3 and the media counted at day 6 with a LKB liquid scintillation counter. […]

Assay [2] concerns the target T1, rat osteoclasts (Rattus norvegicus, UniProt F1LZX9+Q8R2H2).
T1 sequence (F1LZX9 31-1043): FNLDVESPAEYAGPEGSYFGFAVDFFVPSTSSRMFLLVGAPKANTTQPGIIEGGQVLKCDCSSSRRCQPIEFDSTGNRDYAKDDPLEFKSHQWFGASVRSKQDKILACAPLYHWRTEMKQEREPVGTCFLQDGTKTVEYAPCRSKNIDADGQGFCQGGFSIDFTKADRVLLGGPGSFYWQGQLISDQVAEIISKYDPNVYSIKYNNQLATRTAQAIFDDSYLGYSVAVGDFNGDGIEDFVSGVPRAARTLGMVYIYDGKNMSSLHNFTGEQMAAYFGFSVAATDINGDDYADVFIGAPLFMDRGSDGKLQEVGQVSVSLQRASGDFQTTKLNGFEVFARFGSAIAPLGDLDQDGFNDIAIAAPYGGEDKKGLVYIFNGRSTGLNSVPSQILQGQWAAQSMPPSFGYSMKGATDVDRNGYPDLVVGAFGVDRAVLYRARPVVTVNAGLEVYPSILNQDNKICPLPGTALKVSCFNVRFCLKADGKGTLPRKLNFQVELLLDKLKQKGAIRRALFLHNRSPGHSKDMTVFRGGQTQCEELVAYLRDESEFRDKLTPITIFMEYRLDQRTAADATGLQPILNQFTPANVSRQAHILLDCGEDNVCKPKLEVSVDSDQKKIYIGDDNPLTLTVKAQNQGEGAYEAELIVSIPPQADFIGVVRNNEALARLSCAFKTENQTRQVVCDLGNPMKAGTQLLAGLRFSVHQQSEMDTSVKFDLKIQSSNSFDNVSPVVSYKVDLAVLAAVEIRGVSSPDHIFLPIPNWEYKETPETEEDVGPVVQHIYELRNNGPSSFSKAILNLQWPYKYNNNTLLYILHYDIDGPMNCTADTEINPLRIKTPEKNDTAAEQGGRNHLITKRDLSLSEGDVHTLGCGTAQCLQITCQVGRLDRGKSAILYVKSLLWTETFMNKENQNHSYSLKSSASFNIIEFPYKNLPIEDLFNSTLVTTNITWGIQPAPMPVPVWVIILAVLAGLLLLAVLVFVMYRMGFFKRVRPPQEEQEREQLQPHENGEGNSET
T1 sequence (Q8R2H2 26-787): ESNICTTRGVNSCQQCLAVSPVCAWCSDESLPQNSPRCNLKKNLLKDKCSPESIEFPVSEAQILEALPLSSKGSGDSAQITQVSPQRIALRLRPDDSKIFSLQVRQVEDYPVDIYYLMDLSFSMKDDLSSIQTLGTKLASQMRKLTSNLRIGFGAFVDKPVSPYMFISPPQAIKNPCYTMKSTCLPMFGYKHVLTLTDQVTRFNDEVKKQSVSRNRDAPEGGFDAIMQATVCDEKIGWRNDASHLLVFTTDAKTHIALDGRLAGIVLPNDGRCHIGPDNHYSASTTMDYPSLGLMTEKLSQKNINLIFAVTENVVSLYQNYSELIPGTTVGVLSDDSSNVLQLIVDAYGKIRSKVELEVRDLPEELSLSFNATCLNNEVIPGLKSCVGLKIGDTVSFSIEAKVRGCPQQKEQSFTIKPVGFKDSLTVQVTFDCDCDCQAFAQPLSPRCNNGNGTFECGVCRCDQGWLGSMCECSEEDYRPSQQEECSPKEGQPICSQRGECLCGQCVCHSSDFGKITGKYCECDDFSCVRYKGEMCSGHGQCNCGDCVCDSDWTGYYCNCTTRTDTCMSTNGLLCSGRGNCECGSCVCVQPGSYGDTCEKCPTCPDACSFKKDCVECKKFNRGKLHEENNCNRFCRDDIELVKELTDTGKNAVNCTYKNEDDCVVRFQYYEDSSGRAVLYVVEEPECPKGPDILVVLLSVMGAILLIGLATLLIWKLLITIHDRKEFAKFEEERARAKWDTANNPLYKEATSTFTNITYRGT
Description: bone slice resorption assay with rat osteoclasts. To be noted: range 1pM- 10 uM, P>0.07, Graph 3a. The procedure:
Osteoclasts, large multinucleated cells up to 400 microns in diameter and with abundant acidophilic cytoplasm which function in the absorption and removal of osseous tissue, use the integrin receptor to bind bone as part of the mechanism of bone resorption. […] Based on the release of [³H] proline from labelled bone particles, the IC₅₀ of chicken osteoclast resorption was 100 nM. By comparison, the RGDS synthetic tetrapeptide inhibited rat or chicken resorption with an IC₅₀ of 0.1 mM. Attachment experiments with chicken osteoclasts and bone particles labelled with [³H] proline confirmed that the mechanism of action of echistatin is to inhibit osteoclast binding to bone. Echistatin induces the retraction of osteoclast lamellipodia in a manner reminiscent of 1 nM calcitonin or 1 uM prostaglandin E₂.
Osteoclasts were isolated from the long bones of 1-3 day old rats as described by Chambers et al., J. Cell Sci. 66: 383-399 (1984). […]
Resorption of rat and some chicken osteoclasts was measured by using bone slices (4.4 x 4.4 x 0.2 mm) from the diaphysis of bovine femur (Isomet, Buehler Ltd., Lake Bluff, IL) which were cut with a low speed diamond saw as described by Arnett and Dempster, 1986. […] Resorption pits were quantitated by reflected light microscopy with crossed polarizers and rotatable lambda/4 plate (Sato and Grasser, J. Bone Min. Res. in press).

Assay [3] has as its system chicken osteoclasts. Kind of assay: attachment assay of 3H proline labelled bone particles to chicken osteoclasts. To be noted: chicken osteoclasts after 5-6 days culture. How it is done:
Attachment of ³H proline labelled bone particles (20- 53 um) was followed with time by assaying free and bound pools. Chicken osteoclasts in 48 well plates were given 100 ug of labelled bone particles. Free was defined as particles liberated by 3x swirling of cultures with media. Bound was defined as particles liberated after 6 hr incubation and 2x swirling in 1N NaOH. All cells were completely disrupted by the latter treatment. Samples were then ashed in a Packard 306 oxidizer (Camberra Inst., NJ) and counted (LKB).
Free end bound particles of bone labelled with [³H] proline were assayed as a function of incubation time with chicken osteoclasts after 5-6 days culture at 37°C. […] At this echistatin concentration, resorption was inhibited by 40% with little effect on osteoclast morphology.

For assay [4], the target named is T1, rat osteoclasts. Kind of assay: retraction of lamellipodia of rat osteoclasts. An excerpt:
Osteoclasts were isolated from the long bones of 1-3 day old rats as described by Chambers et al., J. Cell Sci. 66: 383-399 (1984). Femora, tibiae and humera were dissected clean of soft tissue, split and scrapped with scalpels into 199 media pH 7-7.2 + 10% heat inactivated fetal calf serum + 100 U/ml antibiotics (penicillin G, steptomycin, amphotericin B, Gibco, New York). After gentle pipetting 60x with a wide bore pipette, the cell suspension was passed through a 110 um nylon mesh (Spectra) and aliquoted onto plastic dishes (Costar, Cambridge, MA), No. 1 coverslips (Corning, New York), glass cuvettes (Herminus) or bone slices (Arnett and Dempster, Endocrinology 120: 602-608 (1987)). All experiments with rat osteoclast cultures were conducted within the first 24 hr after isolation.
Rat or chicken osteoclasts were incubated with different concentrations of RGDS, echistatin and Ala²⁴ echistatin. All of these peptides induced morphological changes but rat osteoclasts 1 day after isolation on glass retracted lamellipodia at 10⁵x lower concentrations of echistatin (4.3 nM) compared to RGDS peptide. […] At these concentrations, extension/retraction and ruffling motility of the lamellipodia increased. […]

Bridge positions count the residues as written; N and C are the ends.

Take Ala²⁴ echistatin: the “effects on the resorption activity” value in the assay with chicken osteoclasts [1] (range 1pM- 10 uM, P>0.07, Graph 3a) is given as “insignificant effects”; at rat osteoclasts [2], “insignificant effects”. In addition, the “kinetics of bone attachment to osteoclasts” value in the assay with chicken osteoclasts [3] (10 nM) is “no significant effect”. In addition, at rat osteoclasts [4] (rat osteoclasts 1 day after isolation on glass), the “concentration at which lamellipodia retracted” value was determined as 34 nM. Moreover, on rat osteoclasts [4] (rat osteoclasts, followed for up to 2 hr), the “concentration at which lamellipodia did not retract” value is listed as 3.4 nM.
As to “H-ECESGPCCRNCKFLKEGTICKRARGDDMDDYCNGKTCDCPRNPHKGPAT-OH (disulfide 2-11, 7-32, 8-37, 20-39 (inferred)) [Synthetic Echistatin]”, the “attachment of bone particles to osteoclasts” value with chicken osteoclasts [3] (100 nM, up to 150 min) was “significantly inhibited”.
For `CCCCC[C@H](O)/C=C/[C@H]1[C@H](O)CC(=O)[C@@H]1C/C=C\CCCC(=O)O` [prostaglandin E₂], the IC50 in the assay with chicken osteoclasts [1] (Gallus gallus, Osteoclast, 24 h, Graph 2a, 1 day resorption assay, read-out: IC₅₀ of resorption) is 1 µM.
